# Reference: patent publication US20150299219A1, “BICYCLIC PYRAZOLONE COMPOUNDS AND METHODS OF USE” (Calitor Sciences, LLC, priority 2014, published 2015)
# How the values were obtained:
# [1] = Pharmacokinetic profiles in rats; type: in vivo; details: for clearance (CL) / AUC(0-t) / half-life / Vd: iv dosing, 1 mg/kg; for AUC(0-t) / half-life / Vd / bioavailability: rat, plasma; for Vd: read-out: Vss; for bioavailability: po, bioavailability (F)
# Method: The LC/MS/MS system used in the analysis consists of an Agilent 1200 Series vacuum degasser, binary pump, well-plate autosampler, thermostatted column compartment, the Agilent G6430 Triple Quadrupole Mass Spectrometer with an electrosprayionization (ESI) source. Quantitative analysis was carried out using MRM mode. The parameters for MRM transitions are in the Table A.
# An Agilent XDB-C18, 2.1×30 mm, 3.5 μM column was used for the analysis. 5 μL of the samples were injected. Analysis condition: The mobile phase was 0.1% formic acid in water (A) and 0.1% formic acid in methanol (B). The flow rate was 0.4 mL/min. And the gradient of Mobile phase was in the Table B.
# Alternatively, an Agilent 6330 series LC/MS/MS spectrometer equipped with G1312A binary pumps, a G1367A autosampler and a G1314C UV detector were used in the analysis. An ESI source was used on the LC/MS/MS spectrometer. The analysis was done in positive ion mode as appropriate and the MRM transition for each analyte was optimized using standard solution. A Capcell MP-C18 100×4.6 mm I.D., […] column (Phenomenex, Torrance, Calif., USA) was used during the analysis. The mobile phase was 5 mM ammonia acetate, 0.1% MeOH in water (A): 5 mM ammonia acetate, 0.1% MeOH in acetonitrile (B) (70/30, v/v). The flow rate was 0.6 mL/min. Column was maintained at ambient temperature. 20 μL of the samples were injected.
# The compounds disclosed herein are assessed in pharmacokinetic studies in mice, rats, dogs or monkeys. The compounds are administered as a water solution, 2% HPMC+1% TWEEN®80 in water solution, 5% DMSO+5% solutol in saline, 4% MC suspension or capsule. For the intravenous administration, the animals are generally given at 1 or 2 mg/kg dose. For the oral (p.o.) dosing, mice and rats are generally given 5 or 10 mg/kg dose, and dogs and monkeys are generally given 10 mg/kg dose. The blood samples (0.3 mL) are drawn at 0.25, 0.5, 1.0, 2.0, 3.0, 4.0, 6.0, 8.0, 12 and 24 h time points or 0.083, 0.25, 0.5, 1.0, 2.0, 4.0, 6.0, 8.0 and 24 h time points and centrifuged at 3,000 or 4000 rpm for 2 to 10 min. The plasma solutions are collected, and stored at −20° C. or −70° C. until analyzed by LC/MS/MS as described above.
# Mer (h) = target: T1, Mer (h) (Homo sapiens, UniProt Q12866); experiment: Mer (h) kinase assay; type: biochemical
# T1 construct: purchased Millipore UK Ltd
# T1 sequence (Q12866 21-999): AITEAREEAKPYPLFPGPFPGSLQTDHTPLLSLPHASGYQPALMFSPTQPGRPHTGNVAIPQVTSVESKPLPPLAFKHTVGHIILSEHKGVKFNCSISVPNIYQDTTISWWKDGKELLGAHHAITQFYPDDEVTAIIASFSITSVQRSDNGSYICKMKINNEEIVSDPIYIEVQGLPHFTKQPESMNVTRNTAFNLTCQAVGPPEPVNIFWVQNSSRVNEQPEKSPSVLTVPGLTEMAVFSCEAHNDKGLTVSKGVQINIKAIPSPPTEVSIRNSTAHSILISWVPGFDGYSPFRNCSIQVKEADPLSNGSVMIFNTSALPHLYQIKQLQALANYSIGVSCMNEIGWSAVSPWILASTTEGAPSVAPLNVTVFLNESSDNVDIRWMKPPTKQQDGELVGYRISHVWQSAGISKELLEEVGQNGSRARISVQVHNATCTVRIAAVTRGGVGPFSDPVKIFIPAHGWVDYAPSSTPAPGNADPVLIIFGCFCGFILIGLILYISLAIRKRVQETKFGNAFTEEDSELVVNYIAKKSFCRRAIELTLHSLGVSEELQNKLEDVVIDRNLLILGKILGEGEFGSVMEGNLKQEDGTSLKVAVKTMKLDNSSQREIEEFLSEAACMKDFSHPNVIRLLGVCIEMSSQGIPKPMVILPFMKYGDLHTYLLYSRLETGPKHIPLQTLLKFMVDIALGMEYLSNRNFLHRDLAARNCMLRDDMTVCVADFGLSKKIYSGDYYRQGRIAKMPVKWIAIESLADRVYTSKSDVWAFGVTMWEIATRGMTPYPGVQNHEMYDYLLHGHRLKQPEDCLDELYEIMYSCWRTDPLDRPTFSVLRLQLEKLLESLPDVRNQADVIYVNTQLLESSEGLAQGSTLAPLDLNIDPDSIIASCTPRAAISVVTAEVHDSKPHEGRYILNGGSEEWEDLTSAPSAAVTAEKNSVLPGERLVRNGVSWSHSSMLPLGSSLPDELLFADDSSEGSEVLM
# Method: The above assay procedure can be used to determine the IC50 for inhibition and/or the inhibition constant, Ki. The IC50 is defined as the concentration of compound required to reduce the enzyme activity by 50% under the condition of the assay. The IC50 value is estimated by preparing a 10 point curve using a 1/2 log dilution series (for example, a typical curve may be prepared using the following compound concentrations: 10 μM, 3 μM, 1 μM, 0.3 μM, 0.1 μM, 0.03 μM, 0.01 μM, 0.003 μM, 0.001 μM and 0 μM).
# Mer (h) is incubated with 8 mM MOPS pH 7.0, 0.2 mM EDTA, 30 mM NaCl, 250 μM GGMEDIYFEFMGGKKK, 10 mM MgAcetate and [γ-^33P-ATP] (specific activity approx. 500 cpm/pmol, concentration as required). The reaction is initiated by the addition of the MgATP mix. After incubation for 40 minutes at room temperature, the reaction is stopped by the addition of 3% phosphoric acid solution. 10 μL of the reaction is then spotted onto a P30 filtermat and washed three times for 5 minutes in 75 mM phosphoric acid and once in methanol prior to drying and scintillation counting.
# The kinase assays described herein were performed at Millipore UK Ltd, Dundee Technology Park, Dundee DD2 1SW, UK.
Compound,clearance (CL) [1],AUC(0-t) [1],half-life [1],Vd [1],bioavailability [1],IC50 (Mer (h))
"O=C(Nc1ccc(Oc2ccnc(NC(=O)C3CC3)c2)cc1)c1c2n(n(-c3ccccc3)c1=O)CCC2 [Ex. 2, N-(4-((2-(cyclopropanecarboxamido)pyridin-4-yl)oxy)phenyl)-2-oxo-1-phenyl-2,4,5,6-tetrahydro-1H-pyrrolo[1,2-b]pyrazole-3-carboxamide]",0.033 L/h/kg,27200 ng·h/mL,463 min,0.313 L/kg,68.1%,3 nM
"CC(=O)Nc1cc(Oc2ccc(NC(=O)c3c4n(n(-c5ccccc5)c3=O)CCC4)cc2)ccn1 [Ex. 3, N-(4-((2-acetamidopyridin-4-yl)oxy)phenyl)-2-oxo-1-phenyl-2,4,5,6-tetrahydro-1H-pyrrolo[1,2-b]pyrazole-3-carboxamide]",0.039 L/h/kg,26300 ng·h/mL,230 min,0.18 L/kg,94.5%,35 nM
"O=C(Nc1ccc(Oc2ccnc(NC(=O)C3CC3)c2)cc1)c1c2n(n(-c3ccccc3)c1=O)CCOC2 [Ex. 19, N-(4-((2-(cyclopropanecarboxamido)pyridin-4-yl)oxy)phenyl)-2-oxo-1-phenyl-2,4,6,7-tetrahydro-1H-pyrazolo[5,1-c][1,4]oxazine-3-carboxamide]",0.018 L/h/kg,50100 ng·h/mL,425 min,0.15 L/kg,66.7%,5 nM

# Results, then the molecule that gave them:
clearance (CL) [1],AUC(0-t) [1],half-life [1],Vd [1],bioavailability [1],IC50 (Mer (h)),Compound
0.020 L/h/kg,46700 ng·h/mL,401 min,0.136 L/kg,72.1%,74 nM,"CC(=O)Nc1cc(Oc2ccc(NC(=O)c3c4n(n(-c5ccccc5)c3=O)CCOC4)nc2)ccn1 [Ex. 12, N-(5-((2-acetamidopyridin-4-yl)oxy)pyridin-2-yl)-2-oxo-1-phenyl-2,4,6,7-tetrahydro-1H-pyrazolo[5,1-c][1,4]oxazine-3-carboxamide]"
0.076 L/h/kg,12900 ng·h/mL,301 min,0.359 L/kg,87.9%,8 nM,"O=C(Nc1ccc(Oc2ccnc(NC(=O)C3CC3)c2)cn1)c1c2n(n(-c3ccccc3)c1=O)CCC2 [Ex. 14, N-(5-((2-(cyclopropanecarboxamido)pyridin-4-yl)oxy)pyridin-2-yl)-2-oxo-1-phenyl-2,4,5,6-tetrahydro-1H-pyrrolo[1,2-b]pyrazole-3-carboxamide]"
